Results published in ChEMBL document CHEMBL3797165, “Synthesis and biological evaluation of novel 1,2,4-triazine derivatives bearing carbazole moiety as potent α-glucosidase inhibitors” (Bioorg Med Chem Lett, 2016).

Assay: Inhibition of Saccharomyces cerevisiae alpha-glucosidase using para-nitrophenyl-alpha-D-glucopyranoside as substrate preincubated for 15 mins followed by substrate addition measured after 30 mins by spectrophotometric method

Compound | IC50 [µM]
OC(CSc1nnc(-c2ccco2)c(-c2ccco2)n1)Cn1c2ccccc2c2ccccc21 (stereo not drawn) | 17.7
OC(CSc1nnc(-c2cccc(Br)c2)c(-c2cccc(Br)c2)n1)Cn1c2ccccc2c2ccccc21 (stereo not drawn) | 20.1
OC(CSc1nnc(-c2ccc(F)cc2)c(-c2ccc(F)cc2)n1)Cn1c2ccccc2c2ccccc21 (stereo not drawn) | 17.6
OC(CSc1nnc(-c2ccccc2F)c(-c2ccccc2F)n1)Cn1c2ccccc2c2ccccc21 (stereo not drawn) | 21.1
O=[N+]([O-])c1ccc2c(c1)c1ccccc1n2CC(O)CSc1nnc(-c2ccccc2F)c(-c2ccccc2F)n1 (stereo not drawn) | 22.1
OC(CSc1nnc(-c2ccccc2)c(-c2ccccc2)n1)Cn1c2ccc(Cl)cc2c2cc(Cl)ccc21 (stereo not drawn) | 27.8
OC(CSc1nnc(-c2cccc(Br)c2)c(-c2cccc(Br)c2)n1)Cn1c2ccc(Cl)cc2c2cc(Cl)ccc21 (stereo not drawn) | 19.2
OC(CSc1nnc(-c2ccccc2Cl)c(-c2ccccc2Cl)n1)Cn1c2ccccc2c2ccccc21 (stereo not drawn) | 47.8
OC(CSc1nnc(-c2ccccc2)c(-c2ccccc2)n1)Cn1c2ccccc2c2ccccc21 (stereo not drawn) | 31.3
OC(CSc1nnc(-c2cccc(F)c2)c(-c2cccc(F)c2)n1)Cn1c2ccc(Cl)cc2c2cc(Cl)ccc21 (stereo not drawn) | 33.1
OC(CSc1nnc(-c2cccc(Br)c2)c(-c2cccc(Br)c2)n1)Cn1c2ccc(Br)cc2c2cc(Br)ccc21 (stereo not drawn) | 9.56
OC(CSc1nnc(-c2ccccc2)c(-c2ccccc2)n1)Cn1c2ccc(Br)cc2c2cc(Br)ccc21 (stereo not drawn) | 19.3
OC(CSc1nnc(-c2ccco2)c(-c2ccco2)n1)Cn1c2ccc(Br)cc2c2cc(Br)ccc21 (stereo not drawn) | 4.27
OC(CSc1nnc(-c2ccco2)c(-c2ccco2)n1)Cn1c2ccc(Cl)cc2c2cc(Cl)ccc21 (stereo not drawn) | 9.24
O=[N+]([O-])c1ccc2c(c1)c1ccccc1n2CC(O)CSc1nnc(-c2ccccc2)c(-c2ccccc2)n1 (stereo not drawn) | 25
OC(CSc1nnc(-c2ccccc2F)c(-c2ccccc2F)n1)Cn1c2ccc(Br)cc2c2cc(Br)ccc21 (stereo not drawn) | 12.8
C[C@@H]1O[C@@H](O[C@@H]2[C@@H](O)[C@H](O)[C@H](O[C@H]3[C@H](O)[C@@H](O)C(O)O[C@@H]3CO)O[C@H]2CO)[C@@H](O)[C@H](O)[C@H]1N[C@H]1C=C(CO)[C@@H](O)[C@H](O)[C@H]1O (stereo partly drawn) | 996

Assay: Non-competitive inhibition of Saccharomyces cerevisiae alpha-glucosidase using para-nitrophenyl-alpha-D-glucopyranoside as substrate preincubated for 15 mins followed by substrate addition measured after 30 mins by Lineweaver-Burk plot analysis

Compound | Ki [µM]
OC(CSc1nnc(-c2ccco2)c(-c2ccco2)n1)Cn1c2ccc(Br)cc2c2cc(Br)ccc21 (stereo not drawn) | 4.43
